Reference: patent US4687773A, “(+)-N-N-propylnorapomorphine and selective limbic activity” (priority 1985, dated 1987)
Counter-ions that a name gives are not always drawn. Like-named read-outs stand apart in the source and are kept apart here.

Assays:
[1] = system: DA in the limbic system (nucleus accumbens septi); experiment: Arousal (locomotor activity) induced by DA injected into nucleus accumbens septi; format: in vivo, rat; settings: for activity counts (arousal induced by 16 μg DA in accumbens): 30 min, DA control 238 ± 38
Description: An experiment shown in Table 9 involves testing the effects of S(+) isomers of apomorphine (APO) and N-propylnorapomorphine (NPA) given systemically (intraperitoneally, ip), as well as S(+) methylenedioxy-N-propylnorapomorphine (MDO-NPA) given ip or orally (po, by orogastric intubation). […]. […] Activity was monitored for 30 min after injection of DA into the brain, which was done at 10 min after systemic dosing with an S(+)aporphine test compound.
Data are mean activity counts ± SEM (N = 6) for rats given DA into the
medial accumbens after pretreatment with an inhibitor of monoamine oxidas
(MA0), and monitored on EAM for 30 min (aporphine given 10 min before DA
systemicallyintraperitoneally [ip] or orally [po].

Dopamine Receptors [2] = format: binding, calf; settings: ligand [3H]ADTN (0.5 nM)
[3] = system: dopamine (DA) receptors in the limbic system and basal ganglia; experiment: Total motor activity, electronic activity monitor (EAM); format: in vivo, rat
Description: (§1) Activity: Overall motor activity was measured by use of the self-recording Stoelting electronic activity monitor method described previously by Stewart, Campbell, Sperk, and Baldessarini^9. Total activity is obtained by setting monitor sensitivity so as to detect both locomotion and small movements (such as grooming, sniffing, and chewing) as would be prominent in stereotyped responses that tend to diminish locomotion and increase sniffing, licking, and chewing movements. Locomotor activity is detected selectively by setting monitor sensitivity to detect large, locomotor movements, and to minimize smaller movements already described.
All data presented in the Tables below are expressed as the mean results from 4-6 rats per condition, ±S.E.M. Stereotypy is expressed in rating units (maximum=3.0) and activity is expressed in arbitrary units of percent change, derived from EAM counts per unit time, relative to activity in control (saline) animals set at zero.
All the posttreatment doses of (+)APO were 3.0 mg/kg, s.c. The data
All posttreatment doses of (+)NPA were 3 mg/kg, s.c. The data are similar

[4] = system: dopamine (DA) receptors in the limbic system; experiment: Locomotor activity (spontaneous or aroused by (-)APO / (-)NPA), electronic activity monitor; format: in vivo, rat; settings: for Locomotion: Table 5; for effect on locomotor-arousal activity (in words): with or without (-) isomer, Hydrochloride
Description: as §1
Rats (mean N=6 per condition) were tested for locomotor activity for 60 min following a single dose of (-)APO (0.3 mg/kg, SC), or its vehicle ("placebo" condition). The S(+) isomers were administered in a range of doses from 0 or 0.1 to 30 mg/kg, SC immediately following injection of (-)APO or its vehicle. Data are presented in FIG. 2 as mean EAM activity counts per hour SEM. In that figure, the dashed line labeled "control" represents the mean activity of rats given vehicle only and no aporphine (SD values are indicated by parallel light lines above and below the control mean).
Test agents (11substituted-N--propylnoraporphine isomers were given at a
dose of 3 mg/kg, ip (in 2 ml/kg) just prior to (-)apomorphine (APO, at 0.
mg/kg, ip, in 1 ml/kg) to rats (N = 6) tested in an electronic activity

Dopamine Receptors [5] = format: binding, calf; settings: ligand [3H]APO (0.5 nM)
[6] = system: dopamine (DA) receptors in the basal ganglia (corpus striatum); experiment: Stereotyped licking and gnawing behavior rating in the rat; format: in vivo
Description: Stereotypy: The mean stereotyped licking and gnawing behavioral rating scheme developed by Tarsy and Baldessarini^8 was used. […]
Stereotypy scores were rated for one hour as described in […]

[7] = system: DA in the corpus striatum (basal ganglia); experiment: Head posture (contralateral head deviation) after intrastriatal DA; format: in vivo, rat; settings: intrastriatal DA 16 μg; aporphine 3 mg/kg systemic (route not given)
[8] = molecular target: T1, Dopamine (DA) sensitive adenylate cyclase (Rattus norvegicus, UniProt P18901); experiment: Stimulation of formation of cyclic AMP in rat striatal homogenate; format: biochemical
T1 construct: homogenates of rat corpus striatum; from tissue; host or cells: rat corpus striatum homogenate
T1 sequence (P18901 whole entry): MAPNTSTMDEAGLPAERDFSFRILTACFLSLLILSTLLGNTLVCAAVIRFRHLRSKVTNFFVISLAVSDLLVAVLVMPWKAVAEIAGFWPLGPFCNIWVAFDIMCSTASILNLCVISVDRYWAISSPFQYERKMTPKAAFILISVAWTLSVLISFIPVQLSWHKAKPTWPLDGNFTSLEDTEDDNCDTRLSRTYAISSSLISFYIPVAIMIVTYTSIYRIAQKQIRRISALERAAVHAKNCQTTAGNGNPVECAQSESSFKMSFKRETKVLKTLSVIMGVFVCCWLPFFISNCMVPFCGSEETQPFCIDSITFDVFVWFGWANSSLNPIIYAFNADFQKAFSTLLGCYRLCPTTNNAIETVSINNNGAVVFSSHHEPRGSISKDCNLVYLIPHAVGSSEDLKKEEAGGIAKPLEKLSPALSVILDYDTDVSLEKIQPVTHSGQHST
Description: assayed in homogenates of corpus striatum obtained from rat brain. The
method of assay of the activity of DAsensitive adenylate cyclase by the
rate of formation of cAMP above a basal (no agonist) level is described
under Experimental Section. The data are mean values of cAMP levels in […]

[9] = molecular target: T2, rat liver catechol O-methyl-transferase (COMT) (Rattus norvegicus, UniProt P22734); experiment: Isomeric substrate selectivity for rat liver COMT; format: biochemical
T2 construct: partially purified rat liver catechol O-methyl-transferase (COMT); from tissue; host or cells: rat liver, ammonium sulfate precipitation and dialysis
T2 sequence (P22734 1-221 isoform P22734-2): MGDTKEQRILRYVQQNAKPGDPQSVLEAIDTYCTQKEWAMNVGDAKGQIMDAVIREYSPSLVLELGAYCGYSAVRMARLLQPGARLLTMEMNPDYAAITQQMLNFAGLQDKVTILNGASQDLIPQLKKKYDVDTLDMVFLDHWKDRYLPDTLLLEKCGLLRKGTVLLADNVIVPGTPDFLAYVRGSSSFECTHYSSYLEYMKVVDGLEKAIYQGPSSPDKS

[10] = Table 5, (+)NPA 3 mg/kg s.c. after (-)NPA 0.3 mg/kg
[11] = Table 5, (+)NPA 3 mg/kg s.c. after (-)NPA 3.0 mg/kg
[12] = Table 5, (+)NPA 3 mg/kg s.c., (-)NPA 0
[13] = 2.5 min, read-out: cAMP production, % of control

With `CCCN1CCc2cccc3c2[C@@H]1Cc1ccc(O)c(O)c1-3` [(+)NPA, (S)-N-n-Propylnorapomorphine Hydrochloride] the “activity counts (arousal induced by 16 μg DA in accumbens)” value (from here on “activity counts”) ([1]; 0.3 mg/kg ip) was 139 ± 17 activity counts, the “activity counts” value ([1]; 1.0 mg/kg ip) was 80 ± 11 activity counts and the “activity counts” value ([1]; 3.0 mg/kg ip) was 54 ± 10 activity counts. For the same molecule, the ED50 ([1]; Rattus norvegicus, ip, read-out: ID50, ip, DA 16 μg in accumbens) was 0.4 mg/kg, the ID50 ([1]; ip, DA 16 μg in accumbens, hydrochloride) was 0.45 mg/kg and the “times more potent than (+)APO as inhibitor of DA in the limbic system” value ([1]; vs (+)APO) was 8 times. For the same molecule, the IC50 (Dopamine Receptors [2]) was 60 nM, the “Total Activity” value ([3]; Table 3, 0.1 mg/kg, s.c.) was 3.2 ± 1.1 percent change vs. placebo con and the “Total Activity” value ([3]; Table 3, 0.3 mg/kg, s.c.) was -5.2 ± 3.1 percent change vs. placebo con. The “Total Activity” value ([3]; Table 3, 3.0 mg/kg, s.c.) was -50.0 ± 18 percent change vs. placebo con, the “Total Activity” value ([3]; Table 3, 5.0 mg/kg, s.c.) was -52.1 ± 21 percent change vs. placebo con and the “Total Activity” value [3, 10] was 18.8 ± 2.6 percent change. For the same molecule, the “Total Activity” value [3, 11] was 156.7 ± 26 percent change, the “Total Activity” value [3, 12] was 0 percent change and the Locomotion ([4]; (+)NPA 3 mg/kg s.c. after (-)NPA 0.3 mg/kg) was 14.8 ± 2.6 percent change. The Locomotion ([4]; (+)NPA 3 mg/kg s.c. after (-)NPA 3.0 mg/kg) was 8.5 ± 0.6 percent change, the Locomotion ([4]; (+)NPA 3 mg/kg s.c., (-)NPA 0) was 0 percent change and the “ID50 to reduce the locomotor activating actions of (-)APO” value ([4]; s.c., (-)APO 0.3 mg/kg) was 0.2 mg/kg. The “ID50, spontaneous locomotor arousal” value ([4]; spontaneous activity) was 3 mg/kg, the “effect on locomotor-arousal activity (in words)” value [4] was “dose-dependent inhibition of such activity of the R(-) aporphine” and the “effect on locomotor-arousal activity (in words)” value ([4]; listed as (+)-N-n-propylnorapomorphine) was “marked motor-inhibitory effect”. The IC50 (Dopamine Receptors [5]) was 66 nM, the “Stereotyped behavior induced by (-)APO, Percent of Control” value ([6]; (+)NPA 3 mg/kg IP after (-)APO 0.3 mg/kg IP) was 100.0 ± 10.6% of Control and the “Stereotyped behavior induced by (-)APO, Percent of Control” value ([6]; (+)NPA 5 mg/kg IP after (-)APO 0.3 mg/kg IP) was 100.0 ± 12.3% of Control. For the same molecule, the “Stereotyped behavior induced by (-)APO, Percent of Control” value ([6]; (+)NPA 30 mg/kg IP after (-)APO 0.3 mg/kg IP) was 102.6 ± 8.9% of Control, the “Stereotypy Score” value ([6]; Table 1, (+)NPA 5 mg/kg s.c. ± (-)APO 3 mg/kg s.c. (printed first: (+)NPA), maximum 3.0) was 2.9 ± 0.1 rating units and the “Stereotypy Score” value ([6]; Table 1, (+)NPA 5 mg/kg s.c. ± (-)NPA 3 mg/kg s.c. (printed first: (+)NPA), maximum 3.0) was 2.9 ± 0.2 rating units. For the same molecule, the “Stereotypy Score” value ([6]; Table 1, (+)NPA 5 mg/kg, s.c., ± saline, maximum 3.0) was 0.0 ± 0.0 rating units, the “Stereotypy Score” value ([6]; Table 1, (-)APO 3 mg/kg s.c. ± (+)NPA 5 mg/kg s.c. (printed first: (-)APO), maximum 3.0) was 2.9 ± 0.1 rating units and the “Stereotypy Score” value ([6]; Table 1, (-)NPA 3 mg/kg s.c. ± (+)NPA 5 mg/kg s.c. (printed first: (-)NPA), maximum 3.0) was 3.0 ± 0.0 rating units. The “Stereotypy Score” value ([6]; Table 3, 0.1 mg/kg, s.c., maximum 3.0) was 0 rating units, the “Stereotypy Score” value ([6]; Table 3, 0.3 mg/kg, s.c., maximum 3.0) was 0 rating units and the “Stereotypy Score” value ([6]; Table 3, 3.0 mg/kg, s.c., maximum 3.0) was 0 rating units. For the same molecule, the “Stereotypy Score” value ([6]; Table 3, 5.0 mg/kg, s.c., maximum 3.0) was 0 rating units, the “Stereotypy Score” value [6, 10] was 1.7 ± 0.6 rating units and the “Stereotypy Score” value [6, 11] was 2.9 ± 0.8 rating units. The “Stereotypy Score” value [6, 12] was 0 rating units, the “stereotyped behavior (in words)” value ([6]; rat, in vivo) was “little effect on stereotyped gnawing” and the “Contralateral Head Deviation, Percent of Total” value [7] was 66.7% of Total. The “Contralateral Head Deviation, Time” value [7] was 480 ± 44 s, the cAMP production ([8]; 10 μM) was 2.95 ± 0.19 picomoles per 2.5 min and the cAMP production ([8]; 100 μM) was 3.19 ± 0.16 picomoles per 2.5 min. The cAMP formation, % of control at 10 µM [8, 13] was 119%, the cAMP formation, % of control at 100 µM [8, 13] was 129% and the “Vmax (range of two experiments)” value ([9]; footnote range) was 10.2- 13.2 (pmol/assay)/h. For the same molecule, the Vmax ([9]; mean, substrate of rat liver COMT) was 11.7 (pmol/assay)/h.
